From patent publication US20250171516A1, “PEPTIDE ACIDS AS A GLP1R AGONIST AND ANTIBODY-DRUG CONJUGATES THEREOF” (Regeneron Pharmaceuticals, Inc., priority 2023, published 2025) come the findings set out here.

Non-standard residues stand in square brackets, D forms with d. Groups on a side chain read outwards from the residue. No end group written: not given here. M3190 payload = not defined here; AA10 = not defined here; AA1 = not defined here; AA2 = not defined here; AA6 = not defined here; AA9 = not defined here

The nature of series [1]: Metabolite study in human liver S9 (high resolution LC-MS). Type of series: in vitro ADME. On the procedure: Metabolite studies were conducted using Q-M3190 and Q-6009 (Q is Glutamine).
Liver S9 is the supernatant obtained by grinding and centrifuging the liver cells. The enzymes content is lower compared to Hepatocytes. It mainly contains CYP enzymes and some biphasic enzymes (but no biphasic coenzyme), so additional coenzyme (NADPH and UDPGA, etc.) is needed to mediate the biphasic reaction.

Series [2] addresses T1, GLP-1R (Homo sapiens, UniProt P43220). Briefly: GLP-1R cAMP assay of peptides (Tables 10, 14, 15). Format: cell-based.
For series [3], the target named is T1, GLP-1R. The series can be described thus: b-arrestin 2 recruitment enzyme fragment complementation assay in HEK293/b-arrestin2/hGLP1R cells. Type of series: cell-based. Also noted: The full-length human GLP1R (NP_002053.3) with a C-terminus fusion to a small b-gal fragment called enzyme donor or ProLink (PK); host or cells: HEK293/b-arrestin2-EA (HEK293/Barrestin clone 2C6/hGLP1R-Prolink1 high sorted, ACL21687). The source says: To test the recruitment of b-arrestin 1 and b-arrestin 2 to GLP1R upon receptor activation, two enzyme fragment complementation assays were developed. To generate the assay cell lines, b-arrestin 1 fused to the b-galactosidase (b-gal) reporter fragment called enzyme acceptor (EA) (i.e., b-arrestin1-EA) or b-arrestin 2 fused to the b-gal reporter fragment EA (i.e., b-arrestin2-EA) were transduced into HEK293 cells using PathHunter b-Arrestinl Retroparticles (DiscoverX, #83-OT-TB-N-01) or PathHunter b-Arrestin2 Retroparticles (DiscoverX, #93-1087), respectively. The full-length human GLP1R (NP_002053.3) with a C-terminus fusion to a small b-gal fragment called enzyme donor or ProLink (PK) (i.e., hGLP1R-PK) was then engineered into HEK293/b-arrestinl-EA cells and HEK293/b-arrestin2-EA cells to generate the cell lines referred herein as HEK293/b-arrestin1/hGLP1R and HEK293/b-arrestin2/hGLP1R. Recruitment of b-arrestin 1 or b-arrestin 2 to GLP1R in these reporter cell lines brings both b-gal fragments (EA and PK) into close proximity, leading to reconstitution of a fully functional enzyme capable of hydrolyzing a substrate and generating a chemiluminescent signal.
(§1) For all assays, cells were seeded into 384-well plates (Falcon #353988) at 6,000 cells/well in assay media (Opti-MEM, 1% FBS, 1×Penicillin-Streptomycin) and incubated overnight at 37° C. Serial dilutions of the anti-GLP1R ATLs and non-binding control ATLs were performed in assay media. Serial dilutions of linker-payloads (LPs) were performed in 100% DMSO (ATCC, #4-X-5), followed by 1:100 dilution in assay media. Test articles were added to cells (1:5 dilution) using VIAFLO 384 (Integra) with the last well in each serial dilution series serving as a blank control containing only assay media for ATLs or assay media with 0.2% DMSO for LPs. The blank was plotted as a continuation of the serial dilution.
For b-arrestin 1 and b-arrestin 2 recruitment assays, after a 1-hour incubation at 37° C., PathHunter Detection Reagent (Eurofins DiscoverX, #93-0001) was added to the wells followed by a 1-hour incubation at room temperature. RLUs were measured on EnVision Plate Reader (Perkin Elmer).
(§2) EC50 values for luminescence assays were determined using a four-parameter logistic equation over a 12-point dose response curve (GraphPad Prism).

For series [4], the target named is T1, GLP-1R. The series can be described thus: CRE-Luc cAMP responsive luciferase reporter assay in HEK293/CRE-Luc/hGLP1R cells. Format: cell-based. Also noted: engineered to express full-length human GLP1R (GenBank: AAI12127.1) (HEK293/CRE-Luc/hGLP1R); expressed in transfected cells; host or cells: HEK293/CRE-Luc (HEK293/FSC11/pCDNA3.1 + GLP1R, ACL6822). The conditions noted are these: for EC50: HEK293/CRE-Luc/hGLP1R cells.
Text: To test the activity of GLP1R agonist linker-payloads (LPs) and anti-GLP1R antibody-tethered ligands (ATLs) of the invention, a cell-based cAMP responsive luciferase reporter assay was developed. To generate the assay cell line, the firefly luciferase gene was placed under the control of four copies of a cAMP response element (4×CRE) located upstream of a minimal promoter and transfected into HEK293 cells and referred to herein as HEK293/CRE-Luc cells. HEK293/CRE-Luc cells were then engineered to express full-length human GLP1R (GenBank: AAI12127.1) (HEK293/CRE-Luc/hGLP1R).
as §1
For the CRE-Luc assay, after a 5-hours incubation at 37° C., luciferase activity was determined by addition of ONE-Glo reagent (Promega, #E6130) followed by measurement of relative light units (RLUs) on EnVision Plate Reader (Perkin Elmer).
as §2

Another series has as its system GLP1R humanized mouse. The series can be described thus: In vivo conversion of c-M3190 ATL to c-M6009 after s.c. dosing. The note with it: 7 days. On the procedure: From a tryptic digestion of the parent M3190-ATL, peptide c-M3190 is a peptide and their structures/sequences were determined by high resolution mass spectroscopy as shown below.
11.4 Syntheses and Characterization of Peptide Compounds Identified from M3190 Metabolite Study

The target in series [5] is T2, GLP-1R of the cAMP assay of Tables 10, 14 and 15 (human, UniProt P43220 24-463, limits assumed). Briefly: cell-based or functional assay.
The target in series [6] is full-length human GLP1R (GenBank: AAI12127.1) expressed on HEK293/CRE-Luc/hGLP1R cells (human, UniProt P43220 24-463). Briefly: cell-based or functional assay.
Series [7] concerns the target hGLP1R-PK: full-length human GLP1R (NP_002053.3) with a C-terminus fusion to ProLink (PK), on … (human, UniProt P43220 24-463). Briefly: cell-based or functional assay.
Series [8] has as its target T2, GLP-1R of the cAMP assay of Tables 10, …. The series can be described thus: cell-based or functional assay. This is another data set of the same source.
[9] abbreviates: metabolites of Q-M6009 at 4 hours in human liver S9.
The mark [10] stands for this setting: metabolites of Q-M3190 at 4 hours in human liver S9.

T1 sequence (P43220 24-463): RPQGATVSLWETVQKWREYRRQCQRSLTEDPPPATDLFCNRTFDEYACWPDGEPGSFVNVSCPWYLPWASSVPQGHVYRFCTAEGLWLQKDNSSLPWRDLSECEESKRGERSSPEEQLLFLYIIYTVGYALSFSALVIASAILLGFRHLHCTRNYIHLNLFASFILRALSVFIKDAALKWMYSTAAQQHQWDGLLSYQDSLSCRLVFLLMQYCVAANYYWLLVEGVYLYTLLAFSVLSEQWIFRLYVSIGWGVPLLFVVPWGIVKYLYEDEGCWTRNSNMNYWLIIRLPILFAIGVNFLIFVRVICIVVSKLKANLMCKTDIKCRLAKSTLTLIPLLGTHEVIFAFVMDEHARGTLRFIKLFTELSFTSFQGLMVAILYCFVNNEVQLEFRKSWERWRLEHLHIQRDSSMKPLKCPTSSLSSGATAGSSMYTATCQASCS

Take `C[C@@H](O)[C@H](NC(=O)CNC(=O)[C@H](Cc1nn[nH]n1)NC(=O)C(C)(C)C(=O)NCCc1cnc[nH]1)C(=O)N[C@@](C)(Cc1ccccc1F)C(=O)N[C@H](C(=O)N[C@@H](CO)C(=O)N[C@@H](CC(=O)O)C(=O)O)[C@@H](C)O` [AA10-AA(-AA8-AA7-AA6-AA5-AA4-AA3]: the “Relative Abundance (% Total)” value in [1] (setting [9]) is reported as 0.21 % Total.

Take `CCc1cc(OCCCCn2cc(COCCOCCOCCOCCOCCOCCOCCOCCN)nn2)ccc1-c1ccc(C[C@H](NC(=O)[C@H](CC(=O)O)NC(=O)[C@H](CO)NC(=O)[C@@H](NC(=O)[C@](C)(Cc2ccccc2F)NC(=O)[C@@H](NC(=O)CNC(=O)[C@H](Cc2nn[nH]n2)NC(=O)C(C)(C)C(=O)NCCc2cnc[nH]2)[C@@H](C)O)[C@@H](C)O)C(=O)N[C@@H](CCCc2cc(C)cc(C)c2)C(N)=O)cc1` [M3190]: in series [1] (setting [10]), the “Relative Abundance (% Total)” value came out at 2.76 % Total. Moreover, the EC50 turned out to be 0.318 nM at GLP-1R [2] (Table 14, peptide amides, read-out: cAMP EC50); 35.1 nM at GLP-1R [3] (HEK293/b-arrestin2/hGLP1R cells, read-out: b-arrestin 2 recruitment EC50); 5.76e-10 M on GLP-1R [4] (independent experiments A, B, C, read-out: EC50 (M), CRE-dependent reporter activity, HEK293/CRE-Luc/hGLP1R); 5.76e-10 M on GLP-1R [4] (read-out: CRE-dependent luciferase reporter activity EC50). For the same molecule, the Emax at GLP-1R [3] (HEK293, read-out: Emax (% GLP-1), b-Arrestin2 recruitment, HEK293/b-arrestin2/hGLP1R) was 128%; on GLP-1R [3] (read-out: b-arrestin 2 recruitment Emax relative to GLP-1, HEK293/b-arrestin2/hGLP1R cells), 128%; at GLP-1R [4] (HEK293, read-out: Emax (% GLP-1), CRE-dependent reporter activity, HEK293/CRE-Luc/hGLP1R), 96.3%.

On to `CCc1cc(OCCCCn2cc(COCCOCCOCCOCCOCCOCCOCCOCCNC(=O)CCC(N)C(=O)O)nn2)ccc1-c1ccc(C[C@H](NC(=O)[C@H](CC(=O)O)NC(=O)[C@H](CO)NC(=O)[C@@H](NC(=O)C(C)(Cc2ccccc2F)NC(=O)[C@@H](NC(=O)CNC(=O)[C@H](Cc2nn[nH]n2)NC(=O)C(C)(C)C(=O)NCCc2cnc[nH]2)[C@@H](C)O)[C@@H](C)O)C(=O)N[C@@H](CCCc2cc(C)cc(C)c2)C(N)=O)cc1` (some centres unmarked) [M6067], for which, in series [1] (setting [10]), the “Relative Abundance (% Total)” value stood at 56.51 % Total.

With `CCc1cc(OCCCCn2cc(COCCOCCOCCOCCOCCOCCOCCOCCNC(=O)CC[C@H](N)C(=O)O)nn2)ccc1-c1ccc(C[C@H](NC(=O)[C@H](CC(=O)O)NC(=O)[C@H](CO)NC(=O)[C@@H](NC(=O)C(C)(Cc2ccccc2F)NC(=O)[C@@H](NC(=O)CNC(=O)[C@H](Cc2nn[nH]n2)NC(=O)C(C)(C)C(=O)NCCc2cnc[nH]2)[C@@H](C)O)[C@@H](C)O)C(=O)N[C@@H](CCCc2cc(C)cc(C)c2)C(=O)O)cc1` (some centres unmarked) [Q-M6009], the “Relative Abundance (% Total)” value in series [1] (setting [10]) is listed as 38.40 % Total; in [1] (setting [9]), 79.84 % Total. Moreover, the “GLP-1R CAMP Max” value on GLP-1R [2] (Table 10) was determined as 106.2%. Moreover, at GLP-1R [2] (Table 10, read-out: GLP-1R CAMP EC50), the EC50 was 3.21 nM.

With “c-M3190 ATL: "Peptide C-M3190 identified from metabolite studies of M3190-antibody conjugate"; "From a tryptic digestion of the parent M3190-ATL" (LLQ(M3190 payload)GSGDIQMTQSPSSVSASVGDR; reading uncertain)”, the “conversion of c-M3190 ATL to c-M6009” value in the series on GLP1R humanized mouse is “slowly converted to c-M6009 after 7 days”.

B1: M6009 (AA10-AA9-AA8-AA7-AA6-AA5-AA4-AA3-(L)AA2-AA1-OH) (peptide)
peptide: [AA10][AA9]GT[AA6]TSD[AA2](Leu)[AA1]-OH
modifications: reading uncertain; also: also named NH2-PEG8-triazole-P8 acid, printed as M6009 (AA10-AA9-AA8-AA7-AA6-AA5-AA4-AA3-(L)AA2-AA1-OH)
Turning to B1, in series [5], the “GLP-1R CAMP EC50” value stood at 2.23 nM and the “GLP-1R CAMP Max (%)” value came out at 140%. Also, in series [6], the “EC50 (M), CRE-dependent reporter activity, HEK293/CRE-Luc/hGLP1R” value came to 4.64e-10 M and the “Emax (% GLP-1), CRE-dependent reporter activity, HEK293/CRE-Luc/hGLP1R” value was 92.1 % GLP-1.

B2: M6324 (AA10-AA9-AA8-AA7-AA6-AA5-AA4-AA3-(L)AA2-OH) (peptide)
peptide: [AA10][AA9]GT[AA6]TSD[AA2](Leu)-OH
modifications: reading uncertain; also: printed as M6324 (AA10-AA9-AA8-AA7-AA6-AA5-AA4-AA3-(L)AA2-OH)
For the molecule B2, in series [5], the “GLP-1R CAMP EC50” value worked out at 882 nM and the “GLP-1R CAMP Max (%)” value came to 53.3%. Besides, in series [6], the “EC50 (M), CRE-dependent reporter activity, HEK293/CRE-Luc/hGLP1R” value came to 2.93e-07 M and the “Emax (% GLP-1), CRE-dependent reporter activity, HEK293/CRE-Luc/hGLP1R” value was 91.6 % GLP-1. Also, in series [7], the “EC50 (M), b-Arrestin2 recruitment, HEK293/b-arrestin2/hGLP1R” value is greater than 1e-06 M and the “Emax (% GLP-1), b-Arrestin2 recruitment, HEK293/b-arrestin2/hGLP1R” value turned out to be 0.7 % GLP-1.

B3: Q-M3190 (AA10-AA9-AA8-AA7-AA6-AA5-AA4-AA3-(Q-L)AA2-AA1-NH2) (peptide)
peptide: [AA10][AA9]GT[AA6]TSD[AA2]([Leu-Gln])[AA1]-NH2
modifications: reading uncertain; also: printed as Q-M3190 (AA10-AA9-AA8-AA7-AA6-AA5-AA4-AA3-(Q-L)AA2-AA1-NH2)
Take B3: in series [8], the “cAMP EC50 (nm)” value was 1.07 nm.
